Patent publication US20130158267A1, “METHOD OF SYNTHESIZING THE COMPLEX [ZN(NNS)2] ACTIVE AGAINST THE MALARIA PARASITE PLASMODIUM” (priority 2010, published 2013)

Tested on: chloroquine resistant strain (W2)
Experiment: activity against chloroquine resistant strain of the malaria parasite
Type: cell-based, Plasmodium falciparum
Settings: compared with control drug
Source text: 3-[1-(2-pyridyl)ethylidene]hydrazinecarbodithioate have moderate potency against falcipain-2 (FP-2) and falcipain-3 (FP-3) cysteine protease enzymes from the malaria parasite plasmodium falciparum while they portray enormous potency against the chloroquine resistant strain (W2) of the parasite. This patent describes the synthesis, characterization and biological results of metal complexes containing deprotonated 3-[1-(2-pyridyl) ethylidene] hydrazinecarbodithioate ligand (FIG. 1). The metal complex were synthesized and recrystallized. The biological activities (nanomolar) of the metal complex against malaria parasites were tested and tabled as table 2 in FIG. 6 of the drawings. The metal potency was far much greater than the control drug with respect to W-2 . This observation is extremely important as malaria resistance against the chloroquine drug is a great challenge today. This metal complex may act as lead compounds for developing future malaria drugs . […] The potency of cadmium is greatest with respect to W-2 compared to other metals as well as the control drug. The metal complex ZnL(LH)Cl containing the deprotonated dithioester L- have been synthesized and charachterized by elemental analysis, mass spectrometry, proton NMR and Fourier transform IR. The ligand LH undergoes tautomerism which can readily get ionized to generate a deprotonated ligand L-. […]

[Cd] [cadmium] was tested, and the “potency against W-2 in words / activity sequence versus control” value was “greatest”.
